Reference: PubChem BioAssay (NCI)
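Assay format: 96-well plates, 48-hour exposure. TGI: total growth inhibition.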

Experiments:
Assay in all cases: inhibition of tumour cell growth, NCI panel, 48 h
786-0 renal = system: 786-0 renal
HT29 colon = system: HT29 colon
M14 melanoma = system: M14 melanoma
NCI-H226 lung = system: NCI-H226 lung
LOX IMVI melanoma = system: LOX IMVI melanoma
OVCAR-5 ovarian = system: OVCAR-5 ovarian
DU-145 prostate = system: DU-145 prostate
SW-620 colon = system: SW-620 colon
IGROV1 ovarian = system: IGROV1 ovarian
TK-10 renal = system: TK-10 renal
ACHN renal = system: ACHN renal
HOP-92 NSCLC = system: HOP-92 NSCLC
UO-31 renal = system: UO-31 renal
MCF7 breast = system: MCF7 breast
RPMI-8226 leukemia = system: RPMI-8226 leukemia
NCI-H460 lung = system: NCI-H460 lung
KM12 colon = system: KM12 colon
A498 renal = system: A498 renal
SF-539 CNS = system: SF-539 CNS
HOP-62 NSCLC = system: HOP-62 NSCLC
RXF 393 renal = system: RXF 393 renal
UACC-257 melanoma = system: UACC-257 melanoma
SK-MEL-2 melanoma = system: SK-MEL-2 melanoma
COLO 205 colon = system: COLO 205 colon
SK-MEL-28 melanoma = system: SK-MEL-28 melanoma
NCI-H522 lung = system: NCI-H522 lung
PC-3 prostate = system: PC-3 prostate
NCI-H23 lung = system: NCI-H23 lung
MOLT-4 leukemia = system: MOLT-4 leukemia
SK-OV-3 ovarian = system: SK-OV-3 ovarian
OVCAR-8 ovarian = system: OVCAR-8 ovarian
SF-295 CNS = system: SF-295 CNS
NCI/ADR-RES ovarian = system: NCI/ADR-RES ovarian
CCRF-CEM leukemia = system: CCRF-CEM leukemia
UACC-62 melanoma = system: UACC-62 melanoma
MDA-MB-435 = system: MDA-MB-435
OVCAR-3 ovarian = system: OVCAR-3 ovarian
SR leukemia = system: SR leukemia
SNB-19 CNS = system: SNB-19 CNS
HCT-15 colon = system: HCT-15 colon
HCT-116 colon = system: HCT-116 colon
MALME-3M melanoma = system: MALME-3M melanoma
A549 NSCLC = system: A549 NSCLC
U251 CNS = system: U251 CNS
SF-268 CNS = system: SF-268 CNS
HCC-2998 colon = system: HCC-2998 colon
HS 578T breast = system: HS 578T breast
BT-549 breast = system: BT-549 breast
T-47D breast = system: T-47D breast
CAKI-1 renal = system: CAKI-1 renal
SK-MEL-5 melanoma = system: SK-MEL-5 melanoma
HL-60(TB) leukemia = system: HL-60(TB) leukemia
K-562 leukemia = system: K-562 leukemia
SN12C renal = system: SN12C renal
EKVX NSCLC = system: EKVX NSCLC
OVCAR-4 ovarian = system: OVCAR-4 ovarian
SNB-75 CNS = system: SNB-75 CNS
MDA-MB-231 breast = system: MDA-MB-231 breast
MDA-N = system: MDA-N

## CC(=O)NC1C(OC2C(CO)OC(OCC3OC(n4ccc(N)nc4=O)C(O)C3O)C(NC(C)=O)C2O)OC(CO)C(O)C1O (stereo not drawn)
786-0 renal
  TGI: > 100 µM
HT29 colon
  TGI: > 100 µM
M14 melanoma
  TGI: > 100 µM
NCI-H226 lung
  TGI: > 100 µM
LOX IMVI melanoma
  TGI: > 100 µM
OVCAR-5 ovarian
  TGI: > 100 µM
DU-145 prostate
  TGI: > 100 µM
SW-620 colon
  TGI: > 100 µM
IGROV1 ovarian
  TGI: > 100 µM
TK-10 renal
  TGI: > 100 µM
ACHN renal
  TGI: > 100 µM
HOP-92 NSCLC
  TGI: > 100 µM
UO-31 renal
  TGI: > 100 µM
MCF7 breast
  TGI: > 100 µM
RPMI-8226 leukemia
  TGI: > 100 µM
NCI-H460 lung
  TGI: > 100 µM
KM12 colon
  TGI: > 100 µM
A498 renal
  TGI: > 100 µM
SF-539 CNS
  TGI: > 100 µM
HOP-62 NSCLC
  TGI: > 100 µM
RXF 393 renal
  TGI: > 100 µM
UACC-257 melanoma
  TGI: > 100 µM
SK-MEL-2 melanoma
  TGI: > 100 µM
COLO 205 colon
  TGI: > 100 µM
SK-MEL-28 melanoma
  TGI: > 100 µM
NCI-H522 lung
  TGI: > 100 µM
PC-3 prostate
  TGI: > 100 µM
NCI-H23 lung
  TGI: > 100 µM
MOLT-4 leukemia
  TGI: > 100 µM
SK-OV-3 ovarian
  TGI: > 100 µM
OVCAR-8 ovarian
  TGI: > 100 µM
SF-295 CNS
  TGI: > 100 µM
NCI/ADR-RES ovarian
  TGI: > 100 µM
CCRF-CEM leukemia
  TGI: > 100 µM
UACC-62 melanoma
  TGI: > 100 µM
MDA-MB-435
  TGI: > 100 µM
OVCAR-3 ovarian
  TGI: > 100 µM
SR leukemia
  TGI: > 100 µM
SNB-19 CNS
  TGI: > 100 µM
HCT-15 colon
  TGI: > 100 µM
HCT-116 colon
  TGI: > 100 µM
MALME-3M melanoma
  TGI: > 100 µM
A549 NSCLC
  TGI: > 100 µM
U251 CNS
  TGI: > 100 µM
SF-268 CNS
  TGI: > 100 µM
HCC-2998 colon
  TGI: > 100 µM
HS 578T breast
  TGI: > 100 µM
BT-549 breast
  TGI: > 100 µM
T-47D breast
  TGI: > 100 µM
CAKI-1 renal
  TGI: > 100 µM
SK-MEL-5 melanoma
  TGI: > 100 µM
HL-60(TB) leukemia
  TGI: > 100 µM
K-562 leukemia
  TGI: > 100 µM
SN12C renal
  TGI: > 100 µM
EKVX NSCLC
  TGI: > 100 µM
OVCAR-4 ovarian
  TGI: > 100 µM
SNB-75 CNS
  TGI: > 100 µM
MDA-MB-231 breast
  TGI: > 100 µM

## Cc1ccc2[nH]c3c(c2c1)CCC/C3=N/N=C(N)N
HT29 colon
  TGI: 3.39 µM
M14 melanoma
  TGI: 3.15 µM
NCI-H226 lung
  TGI: 10.1 µM
LOX IMVI melanoma
  TGI: 4.39 µM
OVCAR-5 ovarian
  TGI: 5.53 µM
DU-145 prostate
  TGI: 3.34 µM
SW-620 colon
  TGI: > 100 µM
IGROV1 ovarian
  TGI: 3.54 µM
ACHN renal
  TGI: 3.64 µM
HOP-92 NSCLC
  TGI: 6.5 µM
RPMI-8226 leukemia
  TGI: 5.12 µM
NCI-H460 lung
  TGI: 2.89 µM
KM12 colon
  TGI: 3.16 µM
A498 renal
  TGI: 45.2 µM
RXF 393 renal
  TGI: 3.95 µM
UACC-257 melanoma
  TGI: 7.41 µM
MDA-N
  TGI: 2.89 µM
SK-MEL-2 melanoma
  TGI: 3.41 µM
COLO 205 colon
  TGI: 3.13 µM
PC-3 prostate
  TGI: 10.2 µM
NCI-H23 lung
  TGI: 9.97 µM
SK-OV-3 ovarian
  TGI: 38.3 µM
OVCAR-8 ovarian
  TGI: 4.49 µM
UACC-62 melanoma
  TGI: 4.73 µM
OVCAR-3 ovarian
  TGI: 8.21 µM
SR leukemia
  TGI: 5.64 µM
SNB-19 CNS
  TGI: 4.76 µM
MALME-3M melanoma
  TGI: 5.45 µM
U251 CNS
  TGI: 4.72 µM
HCC-2998 colon
  TGI: 3.3 µM
BT-549 breast
  TGI: 41.1 µM
CAKI-1 renal
  TGI: 2.94 µM
SK-MEL-5 melanoma
  TGI: 3.4 µM
HL-60(TB) leukemia
  TGI: > 100 µM
K-562 leukemia
  TGI: 5 µM
SN12C renal
  TGI: 3.05 µM
EKVX NSCLC
  TGI: 6.78 µM
OVCAR-4 ovarian
  TGI: 11.4 µM
SNB-75 CNS
  TGI: 4.54 µM
MDA-MB-231 breast
  TGI: 3.04 µM
